Patent US20260069604A1, “NOVEL EQUILIBRATIVE NUCLEOSIDE TRANSPORTER INHIBITORS AND METHODS OF MAKING AND USING SAME” (Duke University, priority 2022, published 2026)
Where a chain is given by its changes, count along the chain named. Entries after “also recorded” stand apart in the source; their conditions may differ.

Columns and labels:
hENT1cryst = biological target: T1, hENT1cryst (Homo sapiens, UniProt Q99808, DEL243-274/L168F/N288K/P175A); assay: cold-competition SPA: displacement of 3H-NBMPR from detergent purified hENT1cryst; format: binding
T1 construct: GFP; FLAG; His10; made in house
T1 sequence (Q99808 with tags, fused parts or gaps L168F/P175A/DEL243-274/N288K): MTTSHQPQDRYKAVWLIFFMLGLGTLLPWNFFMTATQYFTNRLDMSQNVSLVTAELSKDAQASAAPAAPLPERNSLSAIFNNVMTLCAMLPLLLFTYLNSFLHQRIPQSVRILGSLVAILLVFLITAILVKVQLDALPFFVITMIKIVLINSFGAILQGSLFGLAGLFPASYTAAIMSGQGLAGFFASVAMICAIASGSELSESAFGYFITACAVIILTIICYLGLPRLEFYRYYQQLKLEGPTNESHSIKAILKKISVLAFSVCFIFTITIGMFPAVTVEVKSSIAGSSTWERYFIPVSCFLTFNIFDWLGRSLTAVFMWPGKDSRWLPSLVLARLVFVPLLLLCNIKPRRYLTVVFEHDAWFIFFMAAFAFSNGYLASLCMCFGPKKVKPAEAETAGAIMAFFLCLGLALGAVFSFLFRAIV
Procedure: The binding of cold competitor (dilazep control or JH-ENT-01) to hENT1cryst (85 nM) was assessed by the displacement of ^3H-NBMPR (10 nM) from the transporter (n=6 technical replicates from two representative experiments shown, error bars represent S.E.M.) FIG. 18A-C show initial functional characterization of novel hENT1 inhibitors.
A scintillation proximity assay was developed to measure binding of ^3H-NBMPR to hENT1-GFP fusion expressed and detergent solubilized from transiently transfected HEK293T cells (see Methods for details). By successively heating the assay mixture at increasing temperatures and measuring binding signal with scintillation counting, Tm values were determined for engineered hENT1 constructs bearing point mutations or truncations of disordered loops. Point mutations were designed based on a consensus approach, which is described in the Methods section of this chapter. A total of 40 point mutations or disordered-loop truncations were screened with this ^3H-NBMPR SPA approach (FIG. 4A). Mutations L168F, P175A and N288K were identified to substantially increase Tm. […] Importantly, hENT1cryst mediates nucleoside transport to a level consistent with a previous report in proteoliposomes (FIG. 3A) and is also functionally active in when expressed in oocytes (FIG. 3B). […]

hENT1 = biological target: T2, hENT1 (Homo sapiens, UniProt Q99808); assay: 3H-adenosine uptake in oocytes expressing hENT1; format: cell-based; settings: initial experiment n=1, FIG. 19
T2 construct: expressed in transfected cells; host or cells: oocytes (X. laevis)
T2 sequence (Q99808 1-456): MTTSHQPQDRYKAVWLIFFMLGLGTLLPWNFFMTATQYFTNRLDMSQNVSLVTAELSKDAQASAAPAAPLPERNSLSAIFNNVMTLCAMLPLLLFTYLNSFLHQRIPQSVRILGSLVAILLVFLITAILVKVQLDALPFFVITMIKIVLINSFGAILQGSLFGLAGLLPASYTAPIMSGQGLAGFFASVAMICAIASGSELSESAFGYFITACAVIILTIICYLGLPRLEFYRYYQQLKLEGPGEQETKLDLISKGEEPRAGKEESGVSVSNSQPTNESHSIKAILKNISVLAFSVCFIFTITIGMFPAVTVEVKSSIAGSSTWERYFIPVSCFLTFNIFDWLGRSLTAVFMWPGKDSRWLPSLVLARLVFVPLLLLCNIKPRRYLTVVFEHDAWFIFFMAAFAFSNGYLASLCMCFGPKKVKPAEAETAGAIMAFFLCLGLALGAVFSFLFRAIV
Procedure: (§1) Initial experiment (n=1 replicates) showing JH-ENT-01 inhibits both hENT1 and hENT2 mediated uptake of ^3H-adenosine.
(§2) The subtype specificities for these compounds are currently unknown and pending further investigation with functional assays. Towards this end, established assays in oocytes permitted the measurement of nucleoside transport activity for multiple ENT subtypes (FIG. 18C) and the novel inhibitors were tested for their activities on different ENT subtypes (FIG. 19).

hENT2 = biological target: T3, hENT2 (Homo sapiens, UniProt Q14542); assay: 3H-adenosine uptake in oocytes expressing hENT2; format: cell-based; settings: initial experiment n=1, FIG. 19
T3 construct: expressed in transfected cells; host or cells: oocytes (X. laevis)
T3 sequence (Q14542 1-456): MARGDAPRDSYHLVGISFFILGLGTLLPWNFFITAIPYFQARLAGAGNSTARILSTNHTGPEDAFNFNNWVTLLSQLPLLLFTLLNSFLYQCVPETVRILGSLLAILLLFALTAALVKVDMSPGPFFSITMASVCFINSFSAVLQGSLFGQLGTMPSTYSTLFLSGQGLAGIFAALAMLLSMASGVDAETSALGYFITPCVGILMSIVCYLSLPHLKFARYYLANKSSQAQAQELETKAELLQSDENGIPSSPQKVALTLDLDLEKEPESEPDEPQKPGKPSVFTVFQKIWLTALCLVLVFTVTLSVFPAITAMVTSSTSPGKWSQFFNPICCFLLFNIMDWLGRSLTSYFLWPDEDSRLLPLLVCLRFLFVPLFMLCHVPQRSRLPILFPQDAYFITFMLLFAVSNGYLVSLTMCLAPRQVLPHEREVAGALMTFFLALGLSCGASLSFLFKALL
Procedure: as §1, §2

[1] = plasma, brain and spinal cord pharmacokinetics after subcutaneous dosing; format: in vivo, Male CD-1 mice; settings: for distribution into CNS tissue: brain and spinal cord, s.c. dosing, in equilibrium with plasma, no accumulation
Procedure: FIG. 27A-D show plasma (FIG. 27A), brain (FIG. 27B), and spinal cord (FIG. 27C) pharmacokinetics (PK) of JH-ENT-01 and dilazep. […] Male CD-1 mice (n=3 per time-point) were dosed subcutaneously (inj. volume: 8 μL/g BW) with 30 mg/kg of JH-ENT-01 (free base) and 29 mg/kg (molar equivalent) of dilazep dihydrochloride. Both drugs were formulated in 5% DMSO, 20% PEG-400, 20% propylene glycol, and 55% saline. Blood and tissues were collected at 10 min, 0.5, 1.5, 4.5, 8, 12, and 24 h. Following collection, the animals were perfused with saline. Liquid chromatography-tandem-mass spectrometry (LC/MS/MS) was used to determine drug concentration in samples. Pharmacokinetic parameters were calculated by non-compartmental approach within Win-Nonlin software. […] The distribution of both drugs into CNS tissue is high and is in equilibrium with plasma drug concentration (i.e., no drug accumulation in CNS).

[2] = system: SNI-induced neuropathic pain; assay: SNI-induced neuropathic pain measured by PWF; format: in vivo; settings: i.t., 100 nmol; p<0.05; n=4 males per group
[3] = biological target: T4, hENT1cryst mutants (M33I, F307A, F307Y) (Homo sapiens, UniProt Q99808, DEL244-275/F307A/L168F/N288K/P175A); assay: cold competition displacement of 3H-NBMPR by dilazep, hENT1cryst mutants; format: binding; settings: F307A mutant vs hENT1cryst
T4 construct: GFP; FLAG; His10; made in house
T4 sequence (Q99808 with tags, fused parts or gaps L168F/P175A/DEL244-275/N288K/F307A): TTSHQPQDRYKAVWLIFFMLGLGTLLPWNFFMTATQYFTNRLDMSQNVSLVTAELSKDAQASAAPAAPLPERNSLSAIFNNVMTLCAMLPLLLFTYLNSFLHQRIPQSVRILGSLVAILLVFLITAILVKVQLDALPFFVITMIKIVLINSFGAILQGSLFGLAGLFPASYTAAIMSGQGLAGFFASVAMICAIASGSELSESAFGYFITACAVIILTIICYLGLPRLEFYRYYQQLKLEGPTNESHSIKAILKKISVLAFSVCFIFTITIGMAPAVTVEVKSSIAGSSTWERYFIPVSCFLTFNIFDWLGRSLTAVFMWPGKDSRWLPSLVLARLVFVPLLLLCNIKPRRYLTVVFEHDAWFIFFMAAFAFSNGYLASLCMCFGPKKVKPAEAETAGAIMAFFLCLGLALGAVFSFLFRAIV
From the text: (§3) This is substantiated by the equilibrium binding data, as both Q158S and Q158N ablate 3H-NBMPR binding capacity (FIG. 13B). […] This finding is consistent with previous reports on inhibitor sensitivities to substitutions at position 33 of hENT1.

[4] = biological target: T5, hENT1cryst mutants (M33I, F307A, F307Y) (Homo sapiens, UniProt Q99808, DEL244-275/F307Y/L168F/N288K/P175A); assay: as above; format: binding; settings: F307Y mutant vs hENT1cryst
T5 construct: GFP; FLAG; His10; made in house
T5 sequence (Q99808 with tags, fused parts or gaps L168F/P175A/DEL244-275/N288K/F307Y): T4 sequence (Q99808 with tags, fused parts or gaps L168F/P175A/DEL244-275/N288K/F307A) with A274Y
From the text: as §3

[5] = biological target: T6, hENT1cryst mutants (M33I, F307A, F307Y) (Homo sapiens, UniProt Q99808, DEL244-275/L168F/M33I/N288K/P175A); assay: as above; format: binding; settings: M33I mutant vs hENT1cryst
T6 construct: GFP; FLAG; His10; made in house
T6 sequence (Q99808 with tags, fused parts or gaps M33I/L168F/P175A/DEL244-275/N288K): T4 sequence (Q99808 with tags, fused parts or gaps L168F/P175A/DEL244-275/N288K/F307A) with M32I, A274F
From the text: as §3

[6] = s.c. 30 mg/kg JH-ENT-01 (free base) vs 29 mg/kg dilazep dihydrochloride

Row | SMILES | increase in binding affinity to hENT1cryst (hENT1cryst; cold competitor vs dilazep control, hENT1cryst 85 nM, 3H-NBMPR 10 nM) [fold] | binding to target (hENT1cryst; in words, compared to dilazep (FIG. 17)) | inhibition of hENT1 mediated uptake of 3H-adenosine (hENT1) | inhibition of hENT2 mediated uptake of 3H-adenosine (hENT2) | distribution into CNS tissue [1] | half-life compared to dilazep [1, 6] | plasma AUC compared to dilazep [1, 6] | effect on SNI-induced neuropathic pain (PWF) [2] | increase in apparent Kd for dilazep [3] [fold] | decrease in apparent Kd for dilazep [4] [fold] | increase in apparent Kd for dilazep [5] [fold]
1 | COc1cc(C(=O)OCCCN2CCCN(CCCOC(=O)c3cc(OC)c(OC)c(OCc4ccc([N+](=O)[O-])cc4)c3)CC2)cc(OC)c1OC [JH-ENT-01] | ~2 | improved binding to target compared to dilazep | inhibits; also recorded: retains potent inhibition activity | inhibits | high | longer half-life | higher plasma AUC | reversing SNI-induced neuropathic pain | – | – | –
2 | COc1cc(C(=O)OCCCN2CCCN(CCCOC(=O)c3cc(OC)c(OC)c(OC)c3)CC2)cc(OC)c1OC [dilazep] | – | – | – | – | high | – | – | – | ~90 | ~4 | ~3
